Results published in patent US10166142B2, “Small molecule delivery with implantable therapeutic device” (ForSight Vision4, Inc., priority 2011, dated 2019).
Structures can show the parent of a compound that is named as a salt. Where two headings read alike, the source gives them in different places. Blank lines part the entries; values can stand above or below the molecule they belong to.

Experiments:
[1] = Solubility of dorzolamide suspension formulation, Example A; type: physicochemical; conditions: aqueous buffer, thermodynamic from solid; PBS+0.02% sodium azide, pH 7.4, 37C; read-out: dissolved concentration (i.e., solubility)
[2] = Diffusion coefficient in water (literature value / estimate by MW scaling); type: physicochemical; conditions: estimated, at 37C
Text: If the reservoir solution is aqueous or has a viscosity similar to water, the value for the diffusion coefficient of the therapeutic agent (TA) in water at the temperature of interest may be used. […] (Molokhia et al, Exp Eye Res 2008): DTA,37C=DBSA,20C(η20C/η37C)(MWBSA/MWTA)^1/3 where
MW refers to the molecular weight of either BSA or the test compound and η is the viscosity of water.
Small molecules have a diffusion coefficient similar to fluorescein (MW=330, D=4.8 to 6 e-6 cm^2/s from Stay, M S et al. Pharm Res 2003, 20(1), pp. 96-102). For example, the small molecule may comprise a glucocorticoid such as triamcinolone acetonide having a molecular weight of about 435.
(§1) The volume of the device was approximately 25 uL.
as §1

[3] = rabbit and monkey (Gaudreault et al), cited from earlier work
[4] = cited from earlier work
[5] = system: laser photocoagulation treatment-induced Grade IV choroidal neovascularization (CNV) Lesions; conditions: intravitreal injection, all doses tested (Z. Yao et al., ARVO 2009); cited from earlier work

solubility [1]: 9000 µg/mL
Molecule: CCN[C@H]1C[C@H](C)S(=O)(=O)c2sc(S(N)(=O)=O)cc21 [Dorzolamide, dorzolamide Hydrochloride]

diffusion coefficient [2]: 6×10^−6 cm^2/s
Molecule: O=C(c1ccccc1)c1ccc2n1CCC2C(=O)O (centres unmarked) [Ketorolac, Ketorolac Tromethamine]

diffusion coefficient [2]: 5×10^−6 cm^2/s
Molecule: CN(Cc1cnc2nc(N)nc(N)c2n1)c1ccc(C(=O)N[C@@H](CCC(=O)O)C(=O)O)cc1 [Methotrexate, methotrexate]

Molecule: ranibizumab [Lucentis]
half-life in vitreous [3]: about two to four days
half-life in vitreous ([3]; listed as ranibizumab): approximately 3 days
half-life in vitreous ([4]; human eye (Lucentis package insert)): ~220 h
Half-life ([4]; human vitreous, model parameter for FIGS. 119 to 124): 220 h
development of Grade IV CNV lesions [5]: completely inhibit
